Assay results published in patent US20160146788A1, “METHOD FOR SCREENING DRUGS FOR TREATING/PREVENTING MYELODYSPLASTIC SYNDROME, ETC” (KYOTO UNIVERSITY, priority 2013, published 2016).

System: hematopoietic progenitor cells induced from MDS-iPS cells
Assay: Colony formation assay of hematopoietic progenitor cells with p38 inhibitor added
Assay type: cell-based, human
Settings: 10 μM SB203580 in methylcellulose medium, HPC from MDS-iPSC and Normal iPSC derived from KM5 and KM16, colonies counted after 14 or 15 days, FIG. 19
Protocol: Using a 35 mm culture dish, 2500 cells from the cells of CD43^+CD34^+CD38^− fraction induced to differentiate from iPS cells (abnormal MDS-iPSCs (NonT-iPS) and Normal iPSCs (T-iPS)) and extracted by flow cytometer were seeded in 2 ml of a methylcellulose medium containing SCF, G-CSF, GM-CSF, IL-3, IL-6 and EPO (MethoCult H4435) according to the method of Example 2. After 15 days, the number of the colonies was counted under a microscope. After Cytospin, Wright's staining was performed, and the colony type was identified by microscopic observation.
To study whether the decreased colony-forming ability of hematopoietic progenitor cells induced from MDS-iPS cells is recovered by the effect of p38 inhibitor, colony formation assay was performed by a method similar to Example 3 except that a p38 inhibitor was added. In brief, using a 35 mm culture dish, 2500 cells from the cells of CD43+CD34+CD38-fraction induced to differentiate from iPS cells (MDS-iPSCs (NonT-iPS)) and Normal iPSCs (T-iPS)) and extracted by flow cytometer were seeded in 1.1 ml of a methylcellulose medium containing SCF, G-CSF, GM-CSF, IL-3, IL-6, EPO and 10 μM SB203580 (p38 inhibitor) according to the method of Example 2. After 14 or 15 days, the number of colonies was counted under a microscope. Furthermore, after Cytospin, Wright's staining was performed, and the colony type was identified by microscopic observation.

With `C[S+]([O-])c1ccc(-c2nc(-c3ccncc3)c(-c3ccc(F)cc3)[nH]2)cc1` (centres unmarked) [SB203580] the “colony-forming ability (number of colonies)” value was “colony-forming ability-improving effect” and the “colony-forming ability (number of colonies)” value (listed as p38 inhibitor) was “improving effect on the colony-forming ability”.
